# Measurements: patent US5679695A, “Aryl and heteroaryl compounds having anti-retrovirus activity” (The University of Connecticut, priority 1995, dated 1997)
# What was measured:
# [1] = tested on: SC-1 cells; assay: Dye conversion (MTT formazan) assay of drug-induced cytotoxicity; type: cell-based; conditions: 570 nm
# Protocol: (§1) A dye conversion assay to determine drug-induced cytotoxicity was performed. This assay is based on the conversion of MTT to a formazan product in living cells. This conversion results in a color change which can be detected spectrophotometrically. A 96-well tissue culture plate was seeded with […] per well at the time that the 6-well plates were seeded for the UV-XC plaque assay. The following day, the medium was decanted and the cell control cultures received 100 ul of medium. The drug controls received 80 ul of drug and 20 ul of medium such that the final concentration of drug was equivalent to that used in the 6-well plates. On day 3 after addition of the drug, 50 ul of a 2 mg/ml solution of MTT in EMEM with 5% heat-inactivated FBS were added each well. The culture was incubated for 7 hours and 100 ul of a 10% SDS: 0.01 N HCL solution was added to each well. The culture was incubated overnight and the following morning the optical density (O.D.) was read at 570 nm wavelength on a Perkin-Elmer spectrophotometer. The percent reduction in the drug-treated cell. O.D. reading compared to the control cell O.D. reading was calculated.
# (§2) Using the procedure, the following data is generated from representative compounds of the presnet invention.
# [2] = as above; type: cell-based; conditions: mouse, sc-1 cells; for cytotoxicity at 72 h, 1000 µM / viability at 72 h, 1000 µM: 1 × 10^-3 M; for cytotoxicity at 72 h, 1000 µM / cytotoxicity at 72 h, 100 µM / cytotoxicity at 72 h, 10 µM / cytotoxicity at 72 h, 1 µM / cytotoxicity at 72 h, 0.1 µM / cytotoxicity at 72 h, 0.01 µM: read-out: % Reduction; for viability at 72 h, 1000 µM / viability at 72 h, 100 µM / viability at 72 h, 10 µM / viability at 72 h, 1 µM / viability at 72 h, 0.1 µM / viability at 72 h, 0.01 µM: read-out: % of Control; for cytotoxicity at 72 h, 100 µM / viability at 72 h, 100 µM: 1 × 10^-4 M; for cytotoxicity at 72 h, 10 µM / viability at 72 h, 10 µM: 1 × 10^-5 M; for cytotoxicity at 72 h, 1 µM / viability at 72 h, 1 µM: 1 × 10^-6 M; for cytotoxicity at 72 h, 0.1 µM / viability at 72 h, 0.1 µM: 1 × 10^-7 M; for cytotoxicity at 72 h, 0.01 µM / viability at 72 h, 0.01 µM: 1 × 10^-8 M
# Protocol: as §1, §2
# [3] = tested on: HIV-1; assay: XTT assay of protection from HIV-1 cytopathic effect, infected, CEM-IW; type: cell-based, Human Immunodeficiency Virus; conditions: Human immunodeficiency virus 1, CEM-IW, summary table; read-out: CEM-IW EC50
# Protocol: Another assay for testing the efficacy of the compounds is the procedure* used in the National Cancer Institute's test for agents active against Human Immunodeficiency Virus (HIV). It is designed to detect agents acting at any stage of the virus reproductive cycle. The assay basically involves the killing of T4 lymphocytes by HIV. Small amounts of HIV are added to cells, and a complete cycle of virus reproduction is necessary to obtain the required cell killing. Agents that interact with virions, cells, or virus gene-products to interfere with viral activities will protect cells from cytolysis. The system is automated in several features to accommodate large numbers of candidate agents and is generally designed to detect anti-HIV activity. However, compounds that degenerate, or are rapidly metabolized in the culture conditions may not show activity in this screen. All tests are compared with at least one positive (e.g., AZT-treated) control done at the same time under identical conditions.
# * Weislow. O. W., Kiser, R., Fine, D., Bader, J., Shoemaker, R. H., Boyd, M. R.: New soluble-formazan assay for HIV-1 cytopathic effects: application to high-flux screening of synthetic and natural products for AIDS-antiviral activity. J. Natl. Cancer Inst. 81:577-586, 1989.
# 1. The Candidate agent is dissolved in dimethyl sulfoxide (unless otherwise instructed) then diluted 1:100 in cell culture medium before preparing serial half-log10 dilutions. T4 lymphocytes (CEM cell line) are added and after a brief interval HIV-1 added, resulting in a 1:200 final dilution of the compound. Uninfected cells with the compound serve as a toxicity control, and infected and uninfected cells without compound serve as basic controls.
# 2. Cultures are incubated at 37° in a 5% carbon dioxide atmosphere for 6 days.
# 3. The tetrazolium salt, XTT, is added to all wells, and cultures are incubated to allow formazan color development by viable cells.
# 4. Individual wells are analyzed spectrophotometrically to quantitate formazan production, and in addition are viewed microscopically for detection of viable cells and confirmation of protective activity.
# 5. Drug-treated virus-infected cells are compared with drug-treated noninfected cells and with other appropriate controls (untreated infected and untreated noninfected: cells, drug-containing wells without cells, etc.) on the same plate.
# 6. Data are reviewed in comparison with other tests done at the same time and a determination about activity is made.
# [4] = tested on: LP-BM5 MuLV; assay: LP-BM5 MuLV UV-XC plaque assay; type: cell-based, Murine Leukemia Virus; conditions: for inhibition at 100 µM / inhibition at 10 µM / inhibition at 1 µM / inhibition at 0.1 µM / inhibition at 0.01 µM: Murine leukemia virus, SC-1, read-out: % Plaque Reduction
# Protocol: One such method is used to determine the effectiveness of representative compounds and compositions of the present invention in the Rauscher and LP-BMS Murine Leukemia Virus (MLV) In Vitro Assays.
# SC-1 cells were grown as monolayers in 6-well tissue culture plates (Falcon). The a test compound was added to the cultures at the time of virus inoculation (approximately 24 hours after the cells were seeded) and was present for 3 days, at which time the cultures were irradiated with UV light. All compounds were solubilized in DMSO prior to dilution in grown medium. The highest concentration of DMSO present in the cultures was 0.05%. The test cultures (triplicate cultures per drug concentrate) each contained 2 ml of test compound diluted in growth medium (Eagle's minimum) essential medium (EMEM) supplemented with 5% heat-inactivated fetal bovine serum (FBS) and 0.5 ml of the virus suspension diluted to produce a countable number of plaques per well. The six virus control cultures contained 2 ml of medium and 0.5 ml of the virus suspension. NSC606170(ddC) was included as a positive control. drug. Drug cytotoxicity control cultures (containing test compound) but no virus and cell control culture (containing no test compound) or virus were included in the assay. On day 3 post-virus inoculation, the cultures were irradiated and XC cells were added. Three days after V-irradiation, the cultures were fixed with formalin and stained with 0.1% crystal violet. The plaques were counted with the aid of a dissection microscope.
# as §2
compound,measurement,setting,value
"Cc1ccc(S(=O)(=O)c2ccccc2[N+](=O)[O-])cc1 [Compound 2, 1-(4-Methylphenylsulfonyl)-2-nitrobenzene]",O.D. Reading,[1]; 1 × 10^-3 M,1.066
same,O.D. Reading,[1]; 1 × 10^-4 M,1.345
same,O.D. Reading,[1]; 1 × 10^-5 M,1.425
same,O.D. Reading,[1]; 1 × 10^-6 M,1.418
same,O.D. Reading,[1]; 1 × 10^-7 M,1.429
same,O.D. Reading,[1]; 1 × 10^-8 M,1.411
same,"cytotoxicity at 72 h, 1000 µM",[2],31%
same,"viability at 72 h, 1000 µM",[2],69%
same,"cytotoxicity at 72 h, 100 µM",[2],13%
same,"viability at 72 h, 100 µM",[2],87%
same,"cytotoxicity at 72 h, 10 µM",[2],8%
same,"viability at 72 h, 10 µM",[2],92%
same,"cytotoxicity at 72 h, 1 µM",[2],8%
same,"viability at 72 h, 1 µM",[2],92%
same,"cytotoxicity at 72 h, 0.1 µM",[2],8%
same,"viability at 72 h, 0.1 µM",[2],92%
same,"cytotoxicity at 72 h, 0.01 µM",[2],9%
same,"viability at 72 h, 0.01 µM",[2],91%
same,EC50,[3],14.5 µM
same,Mean plaque count,[4]; 1 × 10^-3 M,130
same,"Plaque count, replicate #1",[4]; 1 × 10^-3 M,162
same,"Plaque count, replicate #2",[4]; 1 × 10^-3 M,123
same,"Plaque count, replicate #3",[4]; 1 × 10^-3 M,104
same,Mean plaque count,[4]; 1 × 10^-4 M,50
same,"Plaque count, replicate #1",[4]; 1 × 10^-4 M,43
same,"Plaque count, replicate #2",[4]; 1 × 10^-4 M,37
same,"Plaque count, replicate #3",[4]; 1 × 10^-4 M,70
same,Mean plaque count,[4]; 1 × 10^-5 M,245
same,"Plaque count, replicate #1",[4]; 1 × 10^-5 M,265
same,"Plaque count, replicate #2",[4]; 1 × 10^-5 M,204
same,"Plaque count, replicate #3",[4]; 1 × 10^-5 M,267
same,Mean plaque count,[4]; 1 × 10^-6 M,264
same,"Plaque count, replicate #1",[4]; 1 × 10^-6 M,270
same,"Plaque count, replicate #2",[4]; 1 × 10^-6 M,217
same,"Plaque count, replicate #3",[4]; 1 × 10^-6 M,304
same,Mean plaque count,[4]; 1 × 10^-7 M,299
same,"Plaque count, replicate #1",[4]; 1 × 10^-7 M,327
same,"Plaque count, replicate #2",[4]; 1 × 10^-7 M,269
same,"Plaque count, replicate #3",[4]; 1 × 10^-7 M,301
same,Mean plaque count,[4]; 1 × 10^-8 M,318
same,"Plaque count, replicate #1",[4]; 1 × 10^-8 M,299
same,"Plaque count, replicate #2",[4]; 1 × 10^-8 M,340
same,"Plaque count, replicate #3",[4]; 1 × 10^-8 M,314
same,inhibition at 100 µM,[4]; 1 × 10^-4 M,82%
same,inhibition at 10 µM,[4]; 1 × 10^-5 M,14%
same,inhibition at 1 µM,[4]; 1 × 10^-6 M,8%
same,inhibition at 0.1 µM,[4]; 1 × 10^-7 M,0%
same,inhibition at 0.01 µM,[4]; 1 × 10^-8 M,0%
"O=[N+]([O-])c1ccccc1S(=O)(=O)c1ccccc1 [Compound 1, 1-Nitro-2-(phenylsulfonyl)benzene]",O.D. Reading,[1]; 1 × 10^-3 M,0.851
same,O.D. Reading,[1]; 1 × 10^-4 M,1.320
same,O.D. Reading,[1]; 1 × 10^-5 M,1.504
same,O.D. Reading,[1]; 1 × 10^-6 M,1.522
same,O.D. Reading,[1]; 1 × 10^-7 M,1.566
same,O.D. Reading,[1]; 1 × 10^-8 M,1.530
same,"cytotoxicity at 72 h, 1000 µM",[2],45%
same,"viability at 72 h, 1000 µM",[2],55%
same,"cytotoxicity at 72 h, 100 µM",[2],15%
same,"viability at 72 h, 100 µM",[2],85%
same,"cytotoxicity at 72 h, 10 µM",[2],3%
same,"viability at 72 h, 10 µM",[2],97%
same,"cytotoxicity at 72 h, 1 µM",[2],2%
same,"viability at 72 h, 1 µM",[2],98%
same,"cytotoxicity at 72 h, 0.1 µM",[2],0%
same,"viability at 72 h, 0.1 µM",[2],101%
same,"cytotoxicity at 72 h, 0.01 µM",[2],1%
same,"viability at 72 h, 0.01 µM",[2],99%
same,EC50,[3],4.41 µM
same,Mean plaque count,[4]; 1 × 10^-4 M,254
same,"Plaque count, replicate #1",[4]; 1 × 10^-4 M,219
same,"Plaque count, replicate #2",[4]; 1 × 10^-4 M,216
same,"Plaque count, replicate #3",[4]; 1 × 10^-4 M,328
same,Mean plaque count,[4]; 1 × 10^-5 M,261
same,"Plaque count, replicate #1",[4]; 1 × 10^-5 M,335
same,"Plaque count, replicate #2",[4]; 1 × 10^-5 M,216
same,"Plaque count, replicate #3",[4]; 1 × 10^-5 M,232
same,Mean plaque count,[4]; 1 × 10^-6 M,255
same,"Plaque count, replicate #1",[4]; 1 × 10^-6 M,337
same,"Plaque count, replicate #2",[4]; 1 × 10^-6 M,218
same,"Plaque count, replicate #3",[4]; 1 × 10^-6 M,210
same,Mean plaque count,[4]; 1 × 10^-7 M,207
same,"Plaque count, replicate #1",[4]; 1 × 10^-7 M,201
same,"Plaque count, replicate #2",[4]; 1 × 10^-7 M,192
same,"Plaque count, replicate #3",[4]; 1 × 10^-7 M,228
same,Mean plaque count,[4]; 1 × 10^-8 M,246
same,"Plaque count, replicate #1",[4]; 1 × 10^-8 M,222
same,"Plaque count, replicate #2",[4]; 1 × 10^-8 M,204
same,"Plaque count, replicate #3",[4]; 1 × 10^-8 M,311
same,inhibition at 100 µM,[4]; 1 × 10^-4 M,11%
same,inhibition at 10 µM,[4]; 1 × 10^-5 M,9%
same,inhibition at 1 µM,[4]; 1 × 10^-6 M,11%
same,inhibition at 0.1 µM,[4]; 1 × 10^-7 M,27%
same,inhibition at 0.01 µM,[4]; 1 × 10^-8 M,14%
